According to patent US11033568B2, “Nicotinamide riboside compositions for topical use in treating skin conditions” (ChromaDex Inc., priority 2013, dated 2021):

What was measured:
[1] = tested on: A431 human epidermoid cells; assay: Oxidative damage protection assay (1 mM H2O2, alamar blue cell viability); assay type: cell-based; conditions: for percent cytoprotection: 1 mM H2O2, vs positive (H2O2) control
Procedure: A431 human epidermoid cells (ATCC #CRL1555) were grown in DMEM media supplemented with 10% FBS and 1% PenStrep in T75 flasks based on culture recommendations. The media was replaced every two-three days till >80% confluency was attained. The cells were trypsinized with 0.25% trypsin EDTA solution for 2-3 minutes until the cells were dislodged. The cells were sub-cultured in a ratio of 1:3 for further growth and scale-up for the assay. The cells were trypsinized and counted to a density of 5,000 or 15,000 cells and seeded in […], media/well in 96-well clear bottom black plates. The outer wells at the periphery of the plates were left unseeded and were instead filled with media to reduce the edge effect during incubation. The plates were incubated overnight in a humidified incubator at 37° C./5% CO2 to confirm that the cells were attached. The Nicotinamide Riboside chloride (NR chloride) was added at indicated final assay concentrations in the media either under pre-treatment for 24 h (without hydrogen peroxide) or along with 1 mM hydrogen peroxide for an incubation of 20 h in a humidified incubator at 37° C./5% CO2 either with media replenishment at 8 h or under growth synchronized conditions using 1% FBS. Each concentration was tested in 6 replicates. Appropriate controls: cells without compound and hydrogen peroxide (no cytotoxicity; negative control), cells without compound but in the presence of 1 mM hydrogen peroxide (positive control), wells with alamar blue alone (blank) were kept in each assay. Cell viability was graphed and data was represented as percent cytotoxicity for 1 mM H2O2 under a given assay condition with respect to negative (untreated control) cells or percent cytoprotection in the presence of the test compound calculated with respect to positive (1 mM H2O2) control.

A431 cell line = assay: UV-C damage assay, cyclobutane pyrimidine dimer (CPD) ELISA; assay type: cell-based, human; conditions: for cyclobutane pyrimidine dimer (CPD) level vs. control: 2 h pre-treatment, 10 J/m^2 UVC
Procedure: The A431 cell line was seeded in 6-wells plate at a seeding density of 4×10^5 cells/well in 2 ml of culture media containing 10% FBS. The cells were left untreated as a control or treated with different concentrations of NR chloride in the media (5 mM and 1 mM) for 2 h under a fully humidified atmosphere containing 5% CO2 at 37° C. After incubation, culture media was replaced by PBS and cells were exposed to 10 J/m^2 UVC irradiation. Plates were harvested along with respective controls immediately after UVC exposure (Negative Control was cells without UV-C exposure while Positive Control was untreated Cells with UV-C exposure). DNA from cells in each condition was extracted and quantified by NanoDrop. DNA samples were then added in the ELISA plate at 100 ng/well conc. and amount of cyclobutane pyrimidine dimer (CPD) was estimated in the DNA samples using CPD-DNA estimation kits (OxiSelect™, Cell Biolabs, Inc., San Diego, USA) as per manufacturer's protocol.

NIH 3T3 fibroblasts = assay: Scratch wound healing assay (CytoSelect Wound Healing Assay Kit); assay type: cell-based, mouse
Procedure: NIH 3T3 fibroblasts were obtained from […]) and cultured in Dulbecco's modified Eagle's medium (DMEM) supplemented with 10% fetal bovine serum (FBS), 4 mM L-glutamine, 1% penicillin/streptomycin under a fully humidified atmosphere containing 5% CO2 at 37° C. For experiments, cells were collected from subconfluent monolayers with trypsin/EDTA. Cell viability was higher as 95% using trypan blue dye exclusion staining. The study was carried out using cells from passages 4-7 in DMEM medium containing 1% FBS. Untreated cells (1% FBS) were used as negative controls. The effect of nicotinamide riboside chloride (NR chloride) on wound closure in NIH 3T3 fibroblasts was investigated. Cell viability was determined by cell titer blue (Promega), wound closure by CytoSelectTM Wound Healing Assay Kit (Cell Biolabs, Inc., San Diego, USA). All conditions were performed in three independent, controlled experiments. […] Microscopic imaging of wound closure was analyzed using “Image J” software. […] Apart from microscopic observations, data was analyzed for the determination of total surface area of the defined wound area using “Image J” software. Surface area of the migrated cells into the wound area was calculated by subtracting surface area after 24 hour from total surface area of the wound at “0” hour. […]

[2] = cited from earlier work

SMILES	percent cytoprotection ([1]; 0.04 mM, normal growth (10% FBS)) [%]	percent cytoprotection ([1]; 0.2 mM, growth synchronized (1% FBS)) [%]	percent cytoprotection ([1]; 0.2 mM, normal growth (10% FBS)) [%]	percent cytoprotection ([1]; 1 mM, growth synchronized (1% FBS)) [%]	percent cytoprotection ([1]; 1 mM, normal growth (10% FBS)) [%]	percent cytoprotection ([1]; 5 mM, growth synchronized (1% FBS)) [%]	reduction of oxidative damage-mediated cell death ([1]; expected)	reduction of oxidative damage-mediated cell death ([1]; summary over conditions, even in growth arrested condition)	cyclobutane pyrimidine dimer (CPD) level vs. control (A431 cell line; +1 mM, 1.2 μg/ml DNA control) [%]	cyclobutane pyrimidine dimer (CPD) level vs. control (A431 cell line; +1 mM, 2.1 μg/ml DNA control) [%]	cyclobutane pyrimidine dimer (CPD) level vs. control (A431 cell line; +5 mM, 1.2 μg/ml DNA control) [%]	cyclobutane pyrimidine dimer (CPD) level vs. control (A431 cell line; +5 mM, 2.1 μg/ml DNA control) [%]	reduction of levels of CPDs (A431 cell line; expected)	gap closure (NIH 3T3 fibroblasts; 0.2 mM + 1% FBS) [%]	gap closure (NIH 3T3 fibroblasts; 1 mM + 1% FBS, 24 hour incubation) [%]	half life t1/2 ([2]; in blood)	oral bioavailability ([2]; in vivo, po)
NC(=O)c1ccc[n+]([C@@H]2O[C@H](CO)[C@@H](O)[C@H]2O)c1 [NR chloride, Nicotinamide Riboside chloride]	−1	2	8	15	23	38	at least 10%	10-40%	−32	−41	−34	−50	at least 10%	13	46		
COc1cc(/C=C/c2ccc(O)cc2)cc(OC)c1 [pterostilbene, 3,5-dimethoxy-4′-hydroxy-trans-stilbene]																about 105 minutes	orally bioavailable
